Data published in US8680290B2, “Isoxazoline derivatives and their use as herbicides” (Syngenta Limited, priority 2004, dated 2014).

How the values were obtained:
[1] = system: Monocotyledonous and dicotyledonous test plants; assay: Example B1 herbicidal action, application post-emergence (Table B1a); format: in vivo; conditions: 250 g/ha, evaluated after 3 weeks, scale 0-10
In short: (§1)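 Visual damage rating, 10 = plant dead and 0 = unharmed, taken at 3 weeks for post-emergence and 4 weeks for pre-emergence treatment. Application by spray of formulated aqueous solution either immediately after sowing or at 8–9 days' growth, with mono- and dicot plants kept in a greenhouse.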

[2] = system: Monocotyledonous and dicotyledonous test plants; assay: Example B1 herbicidal action, application pre-emergence (Table B1b); format: in vivo; conditions: 250 g/ha, evaluated after 4 weeks
In short: as §1

Row | Compound | herbicidal damage rating, Abutilon [1] | herbicidal damage rating, Amaranthus [1] | herbicidal damage rating, Digitaria [1] | herbicidal damage rating, Panicum [1] | herbicidal damage rating, Setaria [1] | herbicidal damage rating, Sida [1] | herbicidal action (damage rating 0-10), Amaranthus [2] | herbicidal action (damage rating 0-10), Digitaria [2] | herbicidal action (damage rating 0-10), Panicum [2] | herbicidal action (damage rating 0-10), Setaria [2] | herbicidal action (damage rating 0-10), Sida [2]
1 | COc1ccccc1C(F)(F)S(=O)(=O)C1=NOC(C)(C)C1 [1.107] | 4 | 0 | 8 | 7 | 5 | 5 | 9 | 7 | 9 | 10 | 0
2 | Cc1ccc(F)c(C(F)(F)S(=O)(=O)C2=NOC(C)(C)C2)c1F [1.108] | 7 | 8 | 8 | 5 | 5 | 8 | 10 | 10 | 10 | 10 | 9
3 | CC1(C)CC(S(=O)(=O)C(F)(F)c2cc(F)cc3c2OCOC3)=NO1 [1.109] | 6 | 5 | 6 | 5 | 3 | 2 | 10 | 10 | 10 | 9 | 0
4 | CC1(C)CC(S(=O)(=O)C(F)(F)c2cc(F)ccc2F)=NO1 [1.114] | 3 | 3 | 8 | 3 | 8 | 2 | 10 | 10 | 10 | 10 | 9
5 | CC1(C)CC(S(=O)(=O)C(F)(F)c2cc(F)cc(F)c2)=NO1 [1.115] | 2 | 5 | 8 | 8 | 7 | 0 | 10 | 10 | 10 | 10 | 8
6 | CC1(C)CC(S(=O)(=O)C(F)(F)c2cccc(F)c2F)=NO1 [1.116] | 5 | 5 | 8 | 7 | 7 | 0 | 10 | 10 | 10 | 10 | 7
7 | CC1(C)CC(S(=O)(=O)C(F)(F)c2ccccc2-c2ccccc2)=NO1 [1.117] | 4 | 7 | 7 | 5 | 6 | 6 | 9 | 10 | 10 | 8 | 4
8 | CC1(C)CC(S(=O)(=O)C(F)(F)c2ccc(F)cc2F)=NO1 [1.118] | 5 | 3 | 8 | 5 | 7 | 3 | 10 | 10 | 10 | 10 | 8
9 | CCOC(=O)c1ccc(C(F)(F)S(=O)(=O)C2=NOC(C)(C)C2)c(F)c1 [1.120] | 7 | 0 | 8 | 3 | 4 | 0 | 8 | 6 | 8 | 0 | 5
10 | CC1(C)CC(S(=O)(=O)C(F)(Cl)c2cc(F)cc(F)c2)=NO1 (stereo not drawn) [1.125] | 0 | 0 | 8 | 7 | 5 | 3 | 10 | 10 | 10 | 10 | 7
11 | CC1(C)CC(S(=O)(=O)C(F)(Cl)c2cc(F)ccc2F)=NO1 (stereo not drawn) [1.126] | 3 | 0 | 8 | 5 | 5 | 5 | 10 | 10 | 10 | 10 | 8
12 | CC1(C)CC(S(=O)(=O)C(Br)c2cccc(F)c2F)=NO1 (stereo not drawn) [1.132] | 3 | 3 | 8 | 8 | 5 | 0 | 10 | 10 | 10 | 10 | 4
13 | CC1(C)CC(S(=O)(=O)C(F)(Cl)c2ccc(F)cc2F)=NO1 (stereo not drawn) [1.133] | 0 | 5 | 8 | 7 | 5 | 4 | 10 | 10 | 10 | 10 | 6
14 | CC1(C)CC(S(=O)(=O)C(Cl)c2ccccc2OC(F)(F)F)=NO1 (stereo not drawn) [1.143] | 3 | 7 | 7 | 7 | 6 | 2 | 7 | 10 | 10 | 10 | 7
15 | CC1(C)CC(S(=O)(=O)C(F)(Cl)c2ccccc2OC(F)(F)F)=NO1 (stereo not drawn) [1.144] | 3 | 3 | 8 | 7 | 7 | 5 | 10 | 10 | 10 | 10 | 8
16 | Cc1ccc(F)c(C(F)(Cl)S(=O)(=O)C2=NOC(C)(C)C2)c1F (stereo not drawn) [1.146] | 5 | 3 | 8 | 5 | 6 | 2 | 8 | 10 | 10 | 10 | 5
17 | CC1(C)CC(S(=O)(=O)C(Cl)c2cc(F)cc3c2OCOC3)=NO1 (stereo not drawn) [1.147] | 2 | 3 | 7 | 8 | 0 | 0 | 5 | 10 | 10 | 9 | 0
18 | CC1(C)CC(S(=O)(=O)C(F)(Cl)c2cccc(F)c2F)=NO1 (stereo not drawn) [1.148] | 0 | 7 | 8 | 8 | 8 | 2 | 10 | 10 | 10 | 10 | 6
